Columns and labels:
Format in all cases: biochemical
[1] = target: T1, PaerAzoR (Pseudomonas aeruginosa, UniProt Q9I5F3); assay: methyl red degradation at […] nm with BNAH as electron donor, reconstituted cell-free (PURE) mix; settings: 30 uM methyl red; 150 uM BNAH; 50 uM FMN; 100 mM sodium phosphate pH 6; 25 °C
T1 construct: gene azoR1; codon-optimised gene in pET-24a(+); cell-free synthesis (PUREfrex2.0), unpurified
T1 sequence (Q9I5F3 1-212): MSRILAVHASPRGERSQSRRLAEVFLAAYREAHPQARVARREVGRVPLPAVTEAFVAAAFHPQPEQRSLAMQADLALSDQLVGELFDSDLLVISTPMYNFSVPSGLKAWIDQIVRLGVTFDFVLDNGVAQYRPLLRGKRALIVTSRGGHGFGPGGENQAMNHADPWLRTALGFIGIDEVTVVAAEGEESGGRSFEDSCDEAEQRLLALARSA

[2] = target: T2, StypAzoR (Salmonella enterica, UniProt P63462); assay: Brilliant Black degradation at […] nm, reconstituted cell-free (PURE) mix; settings: 150 uM NADH; 50 uM FMN; 100 mM sodium phosphate pH 6; 25 °C; 30 uM dye
T2 construct: gene azoR; codon-optimised gene in pET-24a(+); cell-free synthesis (PUREfrex2.0), unpurified

[3] = target: T3, RopaAzoR (Rhodococcus opacus, UniProt A0A1B1KJ01); assay: as above; settings: 150 uM NADH; 50 uM FMN; 100 mM sodium phosphate pH 6; 25 °C; 30 uM dye
T3 construct: gene azoR; cell-free synthesis (PUREfrex2.0), unpurified
T3 sequence (A0A1B1KJ01 1-214): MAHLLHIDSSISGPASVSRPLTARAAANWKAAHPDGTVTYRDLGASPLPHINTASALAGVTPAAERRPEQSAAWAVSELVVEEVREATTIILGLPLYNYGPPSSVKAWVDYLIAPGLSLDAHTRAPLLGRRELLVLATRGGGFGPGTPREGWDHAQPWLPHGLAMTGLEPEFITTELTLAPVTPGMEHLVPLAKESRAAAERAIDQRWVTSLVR

[4] = target: T4, RferAzoR (Rhodoferax ferrireducens, UniProt Q220J4); assay: as above; settings: 150 uM NADH; 50 uM FMN; 100 mM sodium phosphate pH 6; 25 °C; 30 uM dye
T4 construct: gene azoR; codon-optimised gene in pET-24a(+); cell-free synthesis (PUREfrex2.0), unpurified
T4 sequence (Q220J4 1-203): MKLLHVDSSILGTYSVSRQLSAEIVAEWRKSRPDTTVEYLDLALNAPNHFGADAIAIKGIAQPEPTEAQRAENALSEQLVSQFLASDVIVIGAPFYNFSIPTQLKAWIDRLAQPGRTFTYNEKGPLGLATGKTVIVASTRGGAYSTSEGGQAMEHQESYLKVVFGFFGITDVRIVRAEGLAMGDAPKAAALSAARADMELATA

[5] = target: T5, TvarAzoR (Trichormus variabilis, UniProt Q3M1N6); assay: as above; settings: 150 uM NADH; 50 uM FMN; 100 mM sodium phosphate pH 6; 25 °C; 30 uM dye
T5 construct: gene azoR1; codon-optimised gene in pET-24a(+); cell-free synthesis (PUREfrex2.0), unpurified
T5 sequence (Q3M1N6 1-207): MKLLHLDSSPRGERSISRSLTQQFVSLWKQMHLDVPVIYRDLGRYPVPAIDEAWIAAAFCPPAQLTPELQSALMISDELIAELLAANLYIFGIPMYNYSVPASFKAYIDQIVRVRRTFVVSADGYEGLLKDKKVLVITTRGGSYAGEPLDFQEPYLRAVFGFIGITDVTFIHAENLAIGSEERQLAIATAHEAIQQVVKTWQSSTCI

[6] = target: T6, EfaeAzoR (Enterococcus faecalis, UniProt Q831B2); assay: methyl red degradation at […] nm with NADH as electron donor, reconstituted cell-free (PURE) mix; settings: 30 uM methyl red; 150 uM NADH; 50 uM FMN; 100 mM sodium phosphate pH 6; 25 °C
T6 construct: gene azoR; codon-optimised gene in pET-24a(+); cell-free synthesis (PUREfrex2.0), unpurified

[7] = target: T6, EfaeAzoR; assay: methyl red degradation at […] nm, reconstituted cell-free (PURE) mix; settings: 150 uM NADH, NADPH or BNAH; 50 uM FMN; 100 mM sodium phosphate pH 6; 25 °C; 30 uM dye
[8] = target: T4, RferAzoR; assay: as above; settings: 150 uM NADH, NADPH or BNAH; 50 uM FMN; 100 mM sodium phosphate pH 6; 25 °C; 30 uM dye
[9] = target: T3, RopaAzoR; assay: as above; settings: 150 uM NADH; 50 uM FMN; 100 mM sodium phosphate pH 6; 25 °C; 30 uM dye
[10] = target: T1, PaerAzoR; assay: as above; settings: 150 uM BNAH; 50 uM FMN; 100 mM sodium phosphate pH 6; 25 °C; 30 uM dye
[11] = target: T2, StypAzoR; assay: as above; settings: 150 uM NADH, NADPH or BNAH; 50 uM FMN; 100 mM sodium phosphate pH 6; 25 °C; 30 uM dye
[12] = target: T5, TvarAzoR; assay: as above; settings: 150 uM NADH, NADPH or BNAH; 50 uM FMN; 100 mM sodium phosphate pH 6; 25 °C; 30 uM dye

T6 sequence (Q831B2 whole entry): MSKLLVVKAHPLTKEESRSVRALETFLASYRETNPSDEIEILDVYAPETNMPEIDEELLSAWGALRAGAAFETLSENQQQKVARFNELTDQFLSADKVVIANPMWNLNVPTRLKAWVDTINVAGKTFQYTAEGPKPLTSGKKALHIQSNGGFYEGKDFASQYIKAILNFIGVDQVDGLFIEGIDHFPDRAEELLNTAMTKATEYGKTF
T2 sequence (P63462 2-201): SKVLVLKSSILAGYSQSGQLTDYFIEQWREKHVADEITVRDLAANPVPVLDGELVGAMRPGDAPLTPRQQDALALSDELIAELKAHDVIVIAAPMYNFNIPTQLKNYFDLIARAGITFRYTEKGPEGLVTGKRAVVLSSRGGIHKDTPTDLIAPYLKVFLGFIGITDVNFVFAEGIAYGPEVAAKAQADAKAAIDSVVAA

NC(=O)C1=CN(Cc2ccccc2)C=CC1 [BNAH, 1‐benzyl‐1,4‐dihydronicotinamide]
methyl red degradation at 430 nm with BNAH as electron donor, reconstituted cell [1]: PaerAzoR catalyzed the degradation of methyl red using BNAH as co‐substrate

CC(=O)Nc1ccc(S(=O)(=O)O)c2cc(S(=O)(=O)O)c(N=Nc3ccc(N=Nc4ccc(S(=O)(=O)O)cc4)c4ccc(S(=O)(=O)O)cc34)c(O)c12 [Brilliant Black]
Brilliant Black degradation at 570 nm, reconstituted cell-free (PURE) mix [2]: All five enzymes and RopaAzoR were able to degrade BB.
Brilliant Black degradation at 570 nm, reconstituted cell-free (PURE) mix [3]: All five enzymes and RopaAzoR were able to degrade BB.
Brilliant Black degradation at 570 nm, reconstituted cell-free (PURE) mix [4]: All five enzymes and RopaAzoR were able to degrade BB.
Brilliant Black degradation at 570 nm, reconstituted cell-free (PURE) mix [5]: All five enzymes and RopaAzoR were able to degrade BB.

NC(=O)C1=CN([C@@H]2O[C@H](COP(=O)(O)OP(=O)(O)OC[C@H]3O[C@@H](n4cnc5c(N)ncnc54)[C@H](O)[C@@H]3O)[C@@H](O)[C@H]2O)C=CC1 [NADH]
methyl red degradation at 430 nm with NADH as electron donor, reconstituted cell [6]: EfaeAzoR seems to have a strong preference for NADH

CN(C)c1ccc(/N=N/c2ccccc2C(=O)O)cc1 [methyl red]
methyl red degradation at 430 nm, reconstituted cell-free (PURE) mix [7]: Noteworthy are the very high activities of StypAzoR and EfaeAzoR
methyl red degradation at 430 nm, reconstituted cell-free (PURE) mix [8]: all undescribed enzymes catalyzed the degradation of methyl red
methyl red degradation at 430 nm, reconstituted cell-free (PURE) mix [9]: active RopaAzoR was synthesized, and substrate degradation was detected in the activity assay
methyl red degradation at 430 nm, reconstituted cell-free (PURE) mix [10]: PaerAzoR catalyzed the degradation of methyl red using BNAH as co‐substrate
methyl red degradation at 430 nm, reconstituted cell-free (PURE) mix [11]: all undescribed enzymes catalyzed the degradation of methyl red
methyl red degradation at 430 nm, reconstituted cell-free (PURE) mix [12]: all undescribed enzymes catalyzed the degradation of methyl red

Reference: PMC9401864, “Cell‐Free Protein Synthesis for the Screening of Novel Azoreductases and Their Preferred Electron Donor” (Chembiochem, 2022)
